Data: patent US20230274811A1, “METHODS OF MAKING PROSTATE CANCER TREATMENT DECISIONS” (Progenics Pharmaceuticals, Inc., priority 2020, published 2023)
Where “and” joins values, the source holds several entries; their conditions need not be identical. Equal values may be shown once. Entries after “also recorded” stand apart in the source; their conditions may differ. Read-outs that look alike come from different tables or passages of the source.

Legend:
high-risk PCa = test: OSPREY Cohort A sub-analysis: TNM staging by 18F-DCFPyL PET/CT at initial staging; assay type: in vivo; conditions: 252 men
Text: Three central, blinded, and independent readers evaluated the ^18F-DCFPyL scans.

[1] = tested on: primary tumor in the gland; test: OSPREY Cohort A: 18F-DCFPyL PET/CT detection of primary tumor in the prostate gland vs surgical pathology; assay type: in vivo, men
Text: Sensitivity, specificity, PPV and NPV of ^18F-DCFPyL PET/CT for detecting primary tumor in the gland and pelvic lymph node metastases were compared to conventional imaging (CI), either CT or MRI. Three central, blinded, and independent readers evaluated the ^18F-DCFPyL scans and one blinded central reader interpreted the CI. Imaging results were compared to surgical pathology as the truth standard.

[2] = CONDOR safety (adverse events); assay type: in vivo, men
Text: Pre- and post-treatment assessments also included vital signs and concomitant medications/procedures.

[3] = tested on: PCa recurrence or metastases; test: OSPREY Cohort B sub-analysis: staging changes vs conventional imaging; assay type: in vivo, men
Method: Methods ^18F-DCFPyL-PET/CT was evaluated in 117 men with radiologic evidence of local recurrence or metastatic disease on baseline anatomical imaging (CT, MRI) or whole-body bone scintigraphy and in whom at least one lesion was deemed amenable to biopsy. […] Based on TNM staging: prostatic (T), pelvic LN (N), extra-pelvic LN (M1a), bone (M1b) and other visceral organs/soft tissue (M1c), ^18F-DCFPyL-PET/CT detection rates including lesion counts were systematically analyzed. Three central, blinded, and independent readers evaluated the ^18F-DCFPyL scans.

[4] = tested on: pelvic lymph node metastases; test: OSPREY Cohort A: 18F-DCFPyL PET/CT detection of pelvic lymph node metastases vs histopathology; assay type: in vivo, men; conditions: for NPV % (95% CI) / PPV % (95% CI) / Sensitivity % (95% CI) / Specificity % (95% CI): N=252
Text: Histopathology served as the reference standard to which imaging findings were compared. FIG. 1 provides information regarding the study design and cohorts.
Imaging findings were compared to histopathology as the truth standard.
In OSPREY, 268 patients at high risk for pelvic lymph node metastasis who were planned for initial definitive therapy underwent PyLARIFY imaging. […] PyLARIFY and baseline conventional imaging reader interpretations were compared to pathologic staging of pelvic nodal metastases.

[5] = OSPREY safety (adverse events); assay type: in vivo, men
Method: The coprimary endpoints of sensitivity and specificity of ^18F-DCFPyL PET/CT for detecting pelvic lymph node metastases were evaluated in Cohort A. Secondary endpoints included safety in both cohorts, positive predictive value (PPV) and negative predictive value (NPV) in Cohort A, and sensitivity and PPV in Cohort B. Three central, blinded, and independent readers evaluated the ^18F-DCFPyL scans. Histopathology served as the reference standard to which imaging findings were compared. FIG. 1 provides information regarding the study design and cohorts.
Co-primary endpoints of specificity and sensitivity of ^18F-DCFPyL PET/CT for detecting prostate cancer metastases in pelvic lymph nodes were evaluated in Cohort A. Key secondary endpoints included incidence of adverse events, positive predictive value (PPV) and negative predictive value (NPV) of ^18F-DCFPyL PET/CT imaging to detect pelvic lymph node metastases in Cohort A, sensitivity and PPV of ^18F-DCFPyL PET/CT imaging to detect prostate cancer within sites of metastasis or recurrence in Cohort B. Three central, blinded, and independent readers evaluated the ^18F-DCFPyL scans. Imaging findings were compared to histopathology as the truth standard.
Pts underwent image-guided biopsy.

[6] = tested on: PSMA-positive PC3 PIP tumor; test: Uptake in mouse xenografts; assay type: in vivo; conditions: PSMA-positive PC3 PIP vs PSMA-negative PC3 flu tumors

O=C(O)CC[C@H](NC(=O)N[C@@H](CCCCNC(=O)c1ccc([18F])nc1)C(=O)O)C(=O)O [18F-DCFPyL, 2-(3-{1-carboxy-5-[(6-[^18F]fluoro-pyridine-3-carbonyl)-amino]-pentyl}ureido)-pentanedioic acid]
patients upstaged to N1 or M1 disease (high-risk PCa): 22%
pts staged M1a (high-risk PCa): 0.4%
pts staged M1b (high-risk PCa): 9.1%
pts staged M1c (high-risk PCa): 1.2%
pts staged with M1 disease (high-risk PCa): 10.7%
pts staged with N1 disease (high-risk PCa; no known nodal/metastatic disease on standard imaging): 14.7%
PPV, median of 3 readers [1]: 100% (0.98, 1.0)
Sensitivity, median of 3 readers [1]: 98.0% (0.96, 1.0)
Sensitivity, median of 3 readers ([1]; listed as PyL): 98%
patients experiencing AEs ([2]; 14 patients, 21 AEs): 6.7%
drug-related serious adverse event ([2]; 208 men): A single serious adverse event (AE) was reported as related to study drug (hypersensitivity); also recorded: hypersensitivity was the single drug-related Grade 3 AE
fatigue, AE incidence ([2]; 208 men): 1.0%
headache, AE incidence ([2]; 208 men): 1.9%
hypertension, AE incidence ([2]; 208 men): 1.0%
drug-related serious adverse event ([2]; 208 men, listed as PyL): one drug-related SAE (hypersensitivity)
tolerability ([2]; CONDOR): well tolerated
Grade 4 AEs, deaths, AEs leading to discontinuation ([2]; in vivo): There were no Grade 4 AEs, nor were there deaths or AEs that led to discontinuation of the study
changes in vital signs pre- to post-dosing ([2]; in vivo): No clinically relevant changes in vital signs were observed
patients with Grade 3, serious AEs (hypersensitivity, headache, paresthesia) ([2]; one patient): 0.5%
AEs in case studies 1-3 ([2]; single patients): No AEs were reported
up-staged pts with extra-pelvic biopsy confirmed M1 by pathology ([3]; 10/11): 91%
baseline M1 pts upstaged to a higher M1 sub-stage ([3]; 10/64): 16%
baseline M1 pts down-staged to M0 ([3]; 18/82): 22%
pts up-staged from M0 to M1 ([3]; 19/33 M0 at baseline by conventional imaging): 58%
NPV, range among three readers ([4]; Cohort A, n=252 evaluable): 81.4-83.8% and 81-84%
PPV, range among three readers ([4]; Cohort A, n=252 evaluable): 78.1-90.5% and 78-91%
Sensitivity, range among three readers ([4]; Cohort A, n=252 evaluable): 30.6-41.9% and 31-42%
Specificity, range among three readers ([4]; Cohort A, n=252 evaluable): 96.3-98.9% and 96-99%
Sensitivity, range among three readers ([4]; Cohort A, restricted to median lymph node metastases >4 mm): 51.7-65.5%
NPV % (95% CI) ([4]; Reader 1): 84 (80, 89) %
PPV % (95% CI) ([4]; Reader 1): 87 (70, 95) %
Sensitivity % (95% CI) ([4]; Reader 1): 42 (30, 54) %
Specificity % (95% CI) ([4]; Reader 1): 98 (95, 99) %
NPV % (95% CI) ([4]; Reader 2): 81 (76, 86) %
PPV % (95% CI) ([4]; Reader 2): 91 (70, 99) %
Sensitivity % (95% CI) ([4]; Reader 2): 31 (19, 42) %
Specificity % (95% CI) ([4]; Reader 2): 99 (96, 100) %
NPV % (95% CI) ([4]; Reader 3): 83 (78, 87) %
PPV % (95% CI) ([4]; Reader 3): 78 (64, 93) %
Sensitivity % (95% CI) ([4]; Reader 3): 40 (28, 53) %
Specificity % (95% CI) ([4]; Reader 3): 96 (94, 99) %
drug-related serious adverse events ([5]; 385 men, both cohorts): No drug-related serious adverse events were observed
dysgeusia, drug-related AE incidence ([5]; 385 men, both cohorts): 2.1%
headache, drug-related AE incidence ([5]; 385 men, both cohorts): 2.1%
men with ≥1 drug-related adverse event ([5]; 385 men, both cohorts): 7.0%
severity of drug-related AEs (dysgeusia and generalized rash) ([5]; Cohort B): mild (Grade 1)
pts with ≥1 drug-related AE ([5]; Cohort B, 117 men): 1.7%
tolerability ([5]; OSPREY): generally well tolerated
uptake in mouse xenografts [6]: taken up only in PSMA-positive PC3 PIP tumor and not in PSMA-negative PC3 flu tumors
